Source: patent US20170112564A1, “METHODS AND MATERIALS FOR TREATING HYPERTENSION” (Mayo Foundation for Medical Education and Research, priority 2014, published 2017)

What was measured:
healthy humans = assay: Brief escalating doses of trimethaphan camsylate with beat-to-beat arterial pressure to distinguish high and low sympathetic activity individuals; assay type: in vivo; conditions: 24 healthy humans, infusion 1-4 mg/minute for 5-10 minutes
Method: Both normal human subjects and patients with diseases such as resistant hypertension can have very wide ranges of baseline sympathetic activity. The following was developed to distinguish those individuals with high levels of baseline sympathetic activity from individuals with lower levels of baseline sympathetic activity. Trimethaphan camsylate, a ganglionic blocking drug, was administered (e.g., by infusion) at 1-4 mg/minute for 5-10 minutes to 24 healthy humans, while non-invasive beat-to-beat measurements of arterial pressure were made. […] The relationship between the fall in blood pressure and baseline sympathetic activity in a group of about 20-30 healthy women ranging in age from their early 20's to their later 60's was determined (FIGS. 1 and 2). Similar data were obtained using healthy men. […] Those individuals with an elevated level of sympathetic activity responsive to a ganglionic blocking drug (e.g., a reduction in the number of bursts per minute that is greater than 10 burst per minute) can be optimal candidates for sympatholytic therapy.

[1] = system: young and older postmenopausal women; assay: Ganglionic (autonomic) blockade with trimethaphan camsylate in young and older postmenopausal women: blood pressure and muscle sympathetic nerve activity; assay type: in vivo, humans; conditions: during trimethaphan
Excerpt: FIG. 1 is a graph plotting muscle sympathetic nerve activity (MSNA; bursts/min) as measured using a microneurography technique for 24 humans. The dose indicates the amount of trimethaphan in mg/min it took to abolish the sympathetic nerve bursts. The MSNA bursts per minute is the amount of sympathetic bursts that occurred at baseline, prior to drug infusion.
FIG. 2 is a graph plotting the same dose of trimethaphan in mg/min compared to the difference in mean arterial pressure (MAP) between baseline and at the final trimethaphan dose.
The effect of ganglionic blockade on arterial blood pressure and how this relates to baseline muscle sympathetic nerve activity in 12 young (25±1 years) and 12 older postmenopausal (61±2 years) women were examined. The women were studied before and during autonomic blockade using trimethaphan camsylate. At baseline, muscle sympathetic nerve activity burst frequency and burst incidence were higher in the older women (33±3 versus 15±1 bursts/min; 57±5 versus 25±2 bursts/100 heartbeats, respectively; P<0.05). Muscle sympathetic nerve activity bursts were abolished by trimethaphan within minutes (e.g., between about 6 and about 35 minutes). […] Baseline muscle sympathetic nerve activity was associated with the decrease in mean arterial pressure during trimethaphan (r=−0.74; P<0.05). See, also, Barnes et al., Hypertension, 63:303-308 (2014).

[2] = older postmenopausal women (61±2 years, n=12)

O=C1N(Cc2ccccc2)C2C[S+]3CCCC3C2N1Cc1ccccc1 (stereo not drawn) [trimethaphan, trimethaphan camsylate]
fall in blood pressure (healthy humans): directly related to baseline sympathetic activity | Muscle sympathetic nerve activity bursts ([1]; 12 young and 12 older postmenopausal women): abolished | decrease in mean arterial pressure [1, 2]: −29±2 mm Hg | decrease in total peripheral resistance [1, 2]: −10±1 mm Hg/L per minute | decrease in mean arterial pressure ([1]; young women (25±1 years, n=12)): −9±2 mm Hg | decrease in total peripheral resistance ([1]; young women (25±1 years, n=12)): −5±1 mm Hg/L per minute
